Experimental data reported in patent US10711000B2 (Fronthera U.S. Pharmaceuticals LLC, priority 2018, dated 2020).
Like-named read-outs stand apart in the source and are kept apart here.

Target: T1, Autotaxin (Homo sapiens, UniProt Q13822)
T1 construct: from tissue; host or cells: pooled human plasma
Assay: LPA formation in pooled human plasma (ex vivo autotaxin inhibition)
Type: biochemical
Conditions: 2 hours incubation
Procedure: Autotaxin is a plasma phosphodiesterase that converts lysophosphatidylcholine (LPC) into lysophosphatidic acid (LPA), therefore LPA formation was used to evaluate the potency of autotaxin inhibitors. The potency of compound was evaluated ex vivo in pooled human plasma.
Various concentrations of compound were incubated with plasma for 2 hours, and the LPA 18:2 and 20:4 concentration was measured by LC/MS/MS. To determine the LPA18:2 or 20:4 concentration in study plasma, a 10× calibration standard of LPA 18:2 or 20:4 were prepared by serial dilution in butyl alcohol: 20000, 10000, 5000, 2000, 1000, 500, 200, 100, 50, 20, and 10 ng/mL. 3 μL of calibration standard solution was added into 27.0 μL of blank plasma in 1.5-mL microcentrifuge tubes to generate 1× calibration standards. The 30.0 μL of standards or study plasma was added into 1.5-mL microcentrifuge tubes. 200 μL of butyl alcohol (containing 25.0 ng/mL LPA17:0 for internal control) was added into each 1.5-mL microcentrifuge tube containing study plasma or calibration standards. After vortexing for 1 minute and centrifuging at 10000 rpm for 10 min, 180 μL of supernatant was transferred into a 96-well plate and the LPA18:2 concentration in the plasma was quantitated using LC/MS/MS together with standards. Briefly, 8 μL of the solutions were injected for LC-MS/MS analysis using an ACQUITY UPLC BEH C18 column (2.1×50 mm, 1.7 μm) with mobile phase A [20 mM NH4OAC in water (0.1% FA)] and phase B [5 mM NH4OAC in water/0.2% FA in ACN=5:95]. Mass spectrometer parameters optimization for LPA18:2 were performed by Deprotonated molecular ion at m/z 433.2 ([M−H]^−) for LPA18:2, 457.2 for LPA20:4 and abundant product ion at m/z 152.8 for both LPA18:2 and LPA20:4 were obtained. Quantitative data were acquired in multiple reaction monitoring (MRM) negative electrospray ionization mode
The inhibition rate of LPA formation was determined by comparing the levels of LPA in treated and non-treated plasma. The data was plotted against the corresponding concentration of compound and the IC50 was calculated through non-linear regression fitting.

[1] = LPA 18:2 by LC/MS/MS, read-out: LPA formation (18:2) (IC50)
[2] = LPA 20:4 by LC/MS/MS, read-out: LPA formation (20:4) (IC50)

Row | SMILES | IC50 [1] [nM] | IC50 [2] [nM]
1 | CCc1nn2c(C)cc(N3CCN(CC(=O)N4CC(O)C4)CC3)cc2c1N(C)c1nc(-c2ccc(F)cc2)c(C#N)s1 [Example 23, 2-((2-ethyl-5-(4-(2-(3-hydroxyazetidin-1-yl)-2-oxoethyl)piperazin-1-yl)-7-methylpyrazolo[1,5-a]pyridin-3-yl)(methyl)amino)-4-(4-fluorophenyl)thiazole-5-carbonitrile] | 100 to 500 | 100 to 500
2 | CCc1nn2c(C)cc(N3CC4(CCN(C(=O)[C@H]5CCCO5)C4)C3)cc2c1N(C)c1nc(-c2ccc(F)cc2)c(C#N)s1 [Example 46, (R)-2-((2-ethyl-7-methyl-5-(6-(tetrahydrofuran-2-carbonyl)-2,6-diazaspiro[3.4]octan-2-yl)pyrazolo[1,5-a]pyridin-3-yl)(methyl)amino)-4-(4-fluorophenyl)thiazole-5-carbonitrile] | 100 to 500 | 100 to 500
3 | CCc1nn2c(C)cc(N3CCC4(CN(C[C@@H](O)CO)C4)C3)cc2c1N(C)c1nc(-c2ccc(F)cc2)c(C#N)s1 [Example 69, (R)-2-((5-(2-(2,3-dihydroxypropyl)-2,6-diazaspiro[3.4]octan-6-yl)-2-ethyl-7-methylpyrazolo[1,5-a]pyridin-3-yl)(methyl)amino)-4-(4-fluorophenyl)thiazole-5-carbonitrile] | 100 to 500 | 100 to 500
4 | CCc1nn2c(C)cc(N3CC4(CN(C(=O)OC5CCOC5)C4)C3)cc2c1N(C)c1nc(-c2ccc(F)cc2)c(C#N)s1 (centres unmarked) [Example 34, tetrahydrofuran-3-yl 6-(3-((5-cyano-4-(4-fluorophenyl)thiazol-2-yl)(methyl)amino)-2-ethyl-7-methylpyrazolo[1,5-a]pyridin-5-yl)-2,6-diazaspiro[3.3]heptane-2-carboxylate] | 100 to 500 | 100 to 500
5 | Cc1cc(N2CCC(N3CC(O)C3)CC2)cc2c(N(C)c3nc(-c4ccc(F)cc4)c(C#N)s3)c(C3CC3)nn12 [Example 93, 2-((2-cyclopropyl-5-(4-(3-hydroxyazetidin-1-yl)piperidin-1-yl)-7-methylpyrazolo[1,5-a]pyridin-3-yl)(methyl)amino)-4-(4-fluorophenyl)thiazole-5-carbonitrile] | 100 to 500 | 100 to 500
6 | CCc1nn2c(C)cc(N3CCC4(CCN(C)C4=O)CC3)cc2c1N(C)c1nc(-c2ccc(F)cc2)c(C#N)s1 [Example 50, 2-((2-ethyl-7-methyl-5-(2-methyl-1-oxo-2,8-diazaspiro[4.5]decan-8-yl)pyrazolo[1,5-a]pyridin-3-yl)(methyl)amino)-4-(4-fluorophenyl)thiazole-5-carbonitrile] | > 1000 | > 1000
7 | Cc1cc(N2CCN(C[C@@H](O)CO)CC2)cc2c(N(C)c3nc(-c4ccc(F)cc4)c(C#N)s3)c(C3CC3)nn12 [Example 82, (R)-2-((2-cyclopropyl-5-(4-(2,3-dihydroxypropyl)piperazin-1-yl)-7-methylpyrazolo[1,5-a]pyridin-3-yl)(methyl)amino)-4-(4-fluorophenyl)thiazole-5-carbonitrile] | 100 to 500 | 100 to 500
8 | CCc1nn2ccc(N3CC4(CN(C(=O)[C@@H]5CCOC5)C4)C3)cc2c1N(C)c1nc(-c2ccc(F)cc2)c(C#N)s1 [Example 9, (R)-2-((2-ethyl-5-(6-(tetrahydrofuran-3-carbonyl)-2,6-diazaspiro[3.3]heptan-2-yl)pyrazolo[1,5-a]pyridin-3-yl)(methyl)amino)-4-(4-fluorophenyl)thiazole-5-carbonitrile] | 100 to 500 | 100 to 500

The remaining lines, values ahead:

Row | IC50 [1] [nM] | IC50 [2] [nM] | SMILES
9 | 100 to 500 | 100 to 500 | CCc1nn2c(C)cc(N3CC4(CN(C(=O)[C@H]5COC[C@@H]5O)C4)C3)cc2c1N(C)c1nc(-c2ccc(F)cc2)c(C#N)s1 (stereo in doubt) [Example 59, 2-((2-ethyl-5-(6-(4-hydroxytetrahydrofuran-3-carbonyl)-2,6-diazaspiro[3.3]heptan-2-yl)-7-methylpyrazolo[1,5-a]pyridin-3-yl)(methyl)amino)-4-(4-fluorophenyl)thiazole-5-carbonitrile]
10 | ≤ 100 | ≤ 100 | CCc1nn2ccc(N3CCC4(CCN(C(=O)N5CC(O)C5)C4)CC3)cc2c1N(C)c1nc(-c2ccc(F)cc2)c(C#N)s1 [Example 18, 2-((2-ethyl-5-(2-(3-hydroxyazetidine-1-carbonyl)-2,8-diazaspiro[4.5]decan-8-yl)pyrazolo[1,5-a]pyridin-3-yl)(methyl)amino)-4-(4-fluorophenyl)thiazole-5-carbonitrile]
11 | ≤ 100 | ≤ 100 | CCc1nn2cc(F)c(N3CC4(CN(C(=O)N5CCN(C)CC5)C4)C3)cc2c1N(C)c1nc(-c2ccc(F)cc2)c(C#N)s1 [Example 105, 2-((2-ethyl-6-fluoro-5-(6-(4-methylpiperazine-1-carbonyl)-2,6-diazaspiro[3.3]heptan-2-yl)pyrazolo[1,5-a]pyridin-3-yl)(methyl)amino)-4-(4-fluorophenyl)thiazole-5-carbonitrile]
12 | 100 to 500 | 100 to 500 | Cc1cc(N2CC3(CN(C(=O)C45CC(C4)C5)C3)C2)cc2c(N(C)c3nc(-c4ccc(F)cc4)c(C#N)s3)c(C3CC3)nn12 [Example 91, 2-((5-(6-(bicyclo[1.1.1]pentane-1-carbonyl)-2,6-diazaspiro[3.3]heptan-2-yl)-2-cyclopropyl-7-methylpyrazolo[1,5-a]pyridin-3-yl)(methyl)amino)-4-(4-fluorophenyl)thiazole-5-carbonitrile]
13 | ≤ 100 | 100 to 500 | CCc1nn2c(C)cc(N3CC4(CCN(C(=O)C5CN(C)C5)C4)C3)cc2c1N(C)c1nc(-c2ccc(F)cc2)c(C#N)s1 [Example 47, 2-((2-ethyl-7-methyl-5-(6-(1-methylazetidine-3-carbonyl)-2,6-diazaspiro[3.4]octan-2-yl)pyrazolo[1,5-a]pyridin-3-yl)(methyl)amino)-4-(4-fluorophenyl)thiazole-5-carbonitrile]
14 | ≤ 100 | 100 to 500 | CCc1nn2c(C)cc(N3CC4(CN(C(=O)C(O)CO)C4)C3)cc2c1N(C)c1nc(-c2ccc(F)cc2)c(C#N)s1 (centres unmarked) [Example 60, 2-((5-(6-(2,3-dihydroxypropanoyl)-2,6-diazaspiro[3.3]heptan-2-yl)-2-ethyl-7-methylpyrazolo[1,5-a]pyridin-3-yl)(methyl)amino)-4-(4-fluorophenyl)thiazole-5-carbonitrile]
15 | ≤ 100 | ≤ 100 | CCc1nn2ccc(N3CCN(CC(=O)N(C)C)CC3)cc2c1N(C)c1nc(-c2ccc(F)cc2)c(C#N)s1 [Example 5, 2-(4-(3-((5-cyano-4-(4-fluorophenyl)thiazol-2-yl)(methyl)amino)-2-ethylpyrazolo[1,5-a]pyridin-5-yl)piperazin-1-yl)-N,N-dimethylacetamide]
16 | ≤ 100 | ≤ 100 | CCc1nn2ccc(N3CC4(CN(C(=O)[C@H]5CCOC5)C4)C3)cc2c1N(C)c1nc(-c2ccc(F)cc2)c(C#N)s1 [Example 10, (S)-2-((2-ethyl-5-(6-(tetrahydrofuran-3-carbonyl)-2,6-diazaspiro[3.3]heptan-2-yl)pyrazolo[1,5-a]pyridin-3-yl)(methyl)amino)-4-(4-fluorophenyl)thiazole-5-carbonitrile]
17 | ≤ 100 | ≤ 100 | CN(c1nc(-c2ccc(F)cc2)c(C#N)s1)c1c(C2CC2)nn2ccc(N3CC4(CN(C(=O)[C@H]5CCOC5)C4)C3)cc12 [Example 22, (S)-2-((2-cyclopropyl-5-(6-(tetrahydrofuran-3-carbonyl)-2,6-diazaspiro[3.3]heptan-2-yl)pyrazolo[1,5-a]pyridin-3-yl)(methyl)amino)-4-(4-fluorophenyl)thiazole-5-carbonitrile]
18 | ≤ 100 | ≤ 100 | CCc1nn2ccc(N3CCC4(CC3)CC(C(=O)N3CC(O)C3)C4)cc2c1N(C)c1nc(-c2ccc(F)cc2)c(C#N)s1 [Example 6, 2-[[2-ethyl-5-[2-(3-hydroxyazetidine-1-carbonyl)-7-azaspiro[3.5]nonan-7-yl]pyrazolo[1,5-a]pyridin-3-yl]-methyl-amino]-4-(4-fluorophenyl)thiazole-5-carbonitrile]
19 | ≤ 100 | ≤ 100 | Cc1cc(N2CC3(CN(C(=O)C4CN(C)C4)C3)C2)cc2c(N(C)c3nc(-c4ccc(F)cc4)c(C#N)s3)c(C3CC3)nn12 [Example 84, 2-((2-cyclopropyl-7-methyl-5-(6-(1-methylazetidine-3-carbonyl)-2,6-diazaspiro[3.3]heptan-2-yl)pyrazolo[1,5-a]pyridin-3-yl)(methyl)amino)-4-(4-fluorophenyl)thiazole-5-carbonitrile]
